Assays:
Squalene Synthetase = target: T1, Squalene Synthetase (Rattus norvegicus, UniProt Q02769); assay: Inhibition of Squalene Synthetase (formation of squalene from tritiated farnesyl pyrophosphate, rat liver microsomal protein); assay type: biochemical; settings: 20 μM 1-[3H]-farnesyl pyrophosphate, 15 minutes, 37° C., read-out: IC50 (concentration which results in a 50% inhibition of squalene production)
T1 construct: from tissue; host or cells: rat liver microsomes
T1 sequence (Q02769 1-416): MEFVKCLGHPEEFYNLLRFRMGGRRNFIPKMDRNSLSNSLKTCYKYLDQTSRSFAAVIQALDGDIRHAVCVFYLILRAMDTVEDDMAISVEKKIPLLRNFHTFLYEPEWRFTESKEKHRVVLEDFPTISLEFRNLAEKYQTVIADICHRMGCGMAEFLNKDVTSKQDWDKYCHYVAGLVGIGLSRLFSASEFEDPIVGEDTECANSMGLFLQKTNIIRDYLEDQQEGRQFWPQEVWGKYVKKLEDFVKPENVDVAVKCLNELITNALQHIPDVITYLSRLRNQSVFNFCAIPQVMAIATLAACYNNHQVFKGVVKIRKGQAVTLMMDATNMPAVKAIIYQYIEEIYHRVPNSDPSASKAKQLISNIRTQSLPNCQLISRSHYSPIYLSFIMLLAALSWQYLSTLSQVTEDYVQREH
Description: (a) Inhibition of Squalene Synthetase
In this test, the ability of a compound to prevent the formation of squalene from a radioactive substrate (tritiated farnesyl pyrophosphate) is assessed.
The test compound is incubated at a concentration of 25 micromolar in 200 μl of a buffered solution containing potassium phosphate (50 mM), MgCl2 (4.95 mM), KF (9.9 mM), NADPH (0.9 mM) and rat liver microsomal protein (20 μg). Rat liver microsomes are prepared by the method described in published European Patent Application No. 324,421 and stored in liquid nitrogen prior to assay. Assay vials are kept at 37° C. throughout the incubation.
The reaction is started with the addition of the substrate (1-[^3 H]-farnesyl pyrophosphate), final concentration 20 μM, and stopped after 15 minutes reaction time with the addition of 50 μl of 4% KOH. The reaction products are separated from unreacted substrate after application to a C-18 octadecyl 1ccBond column (Analytichem Int product No. 617101). An aqueous fraction is eluted with 250 μl of 0.1M KOH. Squalene is then eluted with 1.0 ml 10% ethylacetate in hexane and radioactivity determined. The difference in radioactivity in the presence and absence of the test compound is used to determine the level of inhibition. […] The IC50 can then be determined from a plot of percentage inhibition against concentration of test compound.

[1] = system: de novo hepatic cholesterol synthesis; assay: Acute Rat Cholesterol Synthesis Assay (de novo hepatic cholesterol synthesis from exogenously administered 14C-acetate); assay type: in vivo; settings: female rats, oral gavage, ip or iv (route not specified), 14C-acetate ip after 1 hour, blood sample a further hour later
Description: (b) Acute Rat Cholesterol Synthesis Assay
This is an acute in vivo test in the rat to measure de novo hepatic cholesterol synthesis from exogenously administered ^14 C-acetate.
Female rats (35-55 g) are housed in reverse lighting conditions (red light from 0200h-1400h) for a period of about 2 weeks prior to test. Animals are allowed free access to chow and drinking water throughout this period. At test, animals should weigh 125-150 g.
Test compounds may be administered by oral gavage, dissolved or suspended in 0.5% polysorbate, or by ip or iv dosing. Control animals receive vehicle alone. After 1 hour the rats are injected ip with 25 μCi [2-^14 C]-acetate (NEN DUPONT. specific activity, 45-60 mCi/mmol NEC-085H, or AMERSHAM specific activity, 50-60 mCi/mmol CFA 14) in a volume of 0.25 ml saline (100 μCi/ml). After a further hour, rats are terminally anaesthetised with halothane and a blood sample obtained from the abdominal vena cava.
1 ml of plasma is lyophilised and then saponified in 2 ml ethanolic KOH (1 part 33% KOH, 9 parts ethanol) at 75° C. for 2 hours. After addition of an equal quantity of water, non-saponifiable lipids are extracted with two 5 ml volumes of hexane. The hexane extracts are evaporated to dryness and the residues dissolved in ethanol to determine cholesterol specific radioactivity. ED50 values can be determined in the standard way.

In the case of `OC1(c2cccc(-c3ccccc3)c2)CN2CCC1CC2` (centres unmarked) [Example 3, 3-(biphenyl-3-yl)-3-hydroxyquinuclidine], the IC50 (Squalene Synthetase) is reported as 600 nM.
`OC1(c2ccc(-c3ccc(F)cc3)cc2)CN2CCC1CC2` (centres unmarked) [Example 6, 3-[4'-fluorobiphenyl-4-yl]-3-hydroxyquinuclidine] gave an ED50 [1] of 8 mg/kg.
